The supplement of paper PMC13380429

How the values were obtained:
[1] = test system: A549-ACE2; assay: phospholipidosis EC50; higher = less potent phospholipidosis inducer
[2] = test system: A549-ACE2 infected with SARS-CoV-2; assay: morphology score (similarity to uninfected cells); higher = more like uninfected cells; conditions: 24 h
[3] = test system: HepG2; assay: cell viability relative to DMSO; higher = less toxic; conditions: 72 h
[4] = test system: Vero E6; assay: as above; conditions: 72 h
[5] = test system: Caco-2; assay: as above; conditions: 72 h
[6] = test system: Calu-3; assay: as above; conditions: 72 h
[7] = test system: U2OS; assay: as above; conditions: 72 h
[8] = test system: HepG2; assay: drug sensitivity score (DSS) for viability; higher = more toxic; extreme values may be limits of the assay; conditions: 72 h
[9] = test system: Vero E6; assay: as above; conditions: 72 h
[10] = test system: Caco-2; assay: as above; conditions: 72 h
[11] = test system: Calu-3; assay: as above; conditions: 72 h
[12] = test system: U2OS; assay: as above; conditions: 72 h
[13] = test system: A549-ACE2 infected with SARS-CoV-2; assay: cell count relative to DMSO; higher = less toxic; conditions: 24 h
[14] = test system: A549-ACE2; assay: drug-induced phospholipidosis relative to tamoxifen; higher = more phospholipidosis
[15] = test system: HepG2; assay: relative viability EC50 (midpoint between 100% and the lowest measured viability); higher = less toxic; conditions: 72 h
[16] = test system: Vero E6; assay: as above; conditions: 72 h
[17] = test system: Caco-2; assay: as above; conditions: 72 h
[18] = test system: Calu-3; assay: as above; conditions: 72 h
[19] = test system: U2OS; assay: as above; conditions: 72 h
[20] = test system: A549-ACE2 infected with SARS-CoV-2; assay: SARS-CoV-2 infection rate relative to DMSO; higher = more infection; conditions: 24 h

OCCN1CCN(CC/C=C2/c3ccccc3Sc3ccc(C(F)(F)F)cc32)CC1 [flupentixol]
Conditions | SARS-CoV-2 infection rate [%] | cell count [%] | cell viability [%] | morphology score | phospholipidosis EC50 [µM]
[1], 24 h | – | – | – | – | 17
[1], 48 h | – | – | – | – | 8.95
[1], 72 h | – | – | – | – | 10.2
[2], 0.3 µM | – | – | – | 0.2 | –
[2], 3 µM | – | – | – | 0.62 | –
[2], 10 µM | – | – | – | 0.88 | –
[2], 30 µM | – | – | – | 0.36 | –
[3], 1 nM | – | – | 97.2 | – | –
[3], 10 nM | – | – | 93.8 | – | –
[3], 100 nM | – | – | 90 | – | –
[3], 1000 nM | – | – | 96.9 | – | –
[3], 10000 nM | – | – | 89.9 | – | –
[4], 1 nM | – | – | 98.1 | – | –
[4], 10 nM | – | – | 96.9 | – | –
[4], 100 nM | – | – | 98.1 | – | –
[4], 1000 nM | – | – | 91.8 | – | –
[4], 10000 nM | – | – | 93.1 | – | –
[5], 1 nM | – | – | 90.3 | – | –
[5], 10 nM | – | – | 93.7 | – | –
[5], 100 nM | – | – | 95.2 | – | –
[5], 1000 nM | – | – | 87.6 | – | –
[5], 10000 nM | – | – | 92.4 | – | –
[6], 1 nM | – | – | 85.3 | – | –
[6], 10 nM | – | – | 87.7 | – | –
[6], 100 nM | – | – | 106 | – | –
[6], 1000 nM | – | – | 94.7 | – | –
[6], 10000 nM | – | – | 87 | – | –
[7], 1 nM | – | – | 99.2 | – | –
[7], 10 nM | – | – | 89.9 | – | –
[7], 100 nM | – | – | 105 | – | –
[7], 1000 nM | – | – | 94.6 | – | –
[7], 10000 nM | – | – | 92.1 | – | –
[13], 0.3 µM | – | 107 | – | – | –
[13], 3 µM | – | 113 | – | – | –
[13], 10 µM | – | 124 | – | – | –
[13], 30 µM | – | 96 | – | – | –
[20], 0.3 µM | 97 | – | – | – | –
[20], 3 µM | 66 | – | – | – | –
[20], 10 µM | 17 | – | – | – | –
[20], 30 µM | 46 | – | – | – | –

Conditions | drug sensitivity score | relative viability EC50 [µM]
[8] | 0 | –
[9] | 0 | –
[10] | 0 | –
[11] | 0.6 | –
[12] | 0 | –
[15] | – | > 10
[16] | – | > 10
[17] | – | > 10
[18] | – | > 10
[19] | – | > 10

drug-induced phospholipidosis [%], [14]
Conditions | 0.3 µM | 0.833333 µM | 3.33333 µM | 6.66667 µM | 10 µM | 30 µM
24 h | 4.08 | 5.01 | 30.1 | 43.1 | 72.8 | 122
48 h | 5.09 | 0.98 | 25.8 | 36.9 | 80 | 116
72 h | 7.2 | 2.4 | 18.4 | 31.8 | 74.8 | 138

CC(C)c1cnn2c(NCc3ccccc3)cc(NCCCCCCN)nc12 [BS-181]
Conditions | SARS-CoV-2 infection rate [%] | cell count [%] | cell viability [%] | morphology score | phospholipidosis EC50 [µM]
[1], 24 h | – | – | – | – | 15
[2], 0.3 µM | – | – | – | 0.12 | –
[2], 3 µM | – | – | – | 0.87 | –
[2], 10 µM | – | – | – | 0.93 | –
[2], 30 µM | – | – | – | 0.26 | –
[3], 1 nM | – | – | 97 | – | –
[3], 10 nM | – | – | 92 | – | –
[3], 100 nM | – | – | 98.1 | – | –
[3], 1000 nM | – | – | 90.3 | – | –
[3], 10000 nM | – | – | 80 | – | –
[4], 1 nM | – | – | 98.5 | – | –
[4], 10 nM | – | – | 97.6 | – | –
[4], 100 nM | – | – | 99 | – | –
[4], 1000 nM | – | – | 94.6 | – | –
[4], 10000 nM | – | – | 86.1 | – | –
[5], 1 nM | – | – | 101 | – | –
[5], 10 nM | – | – | 84 | – | –
[5], 100 nM | – | – | 122 | – | –
[5], 1000 nM | – | – | 90.2 | – | –
[5], 10000 nM | – | – | 79 | – | –
[6], 1 nM | – | – | 100 | – | –
[6], 10 nM | – | – | 106 | – | –
[6], 100 nM | – | – | 99.9 | – | –
[6], 1000 nM | – | – | 115 | – | –
[6], 10000 nM | – | – | 87.3 | – | –
[7], 1 nM | – | – | 102 | – | –
[7], 10 nM | – | – | 94.8 | – | –
[7], 100 nM | – | – | 101 | – | –
[7], 1000 nM | – | – | 96.1 | – | –
[7], 10000 nM | – | – | 91 | – | –
[13], 0.3 µM | – | 102 | – | – | –
[13], 3 µM | – | 115 | – | – | –
[13], 10 µM | – | 101 | – | – | –
[13], 30 µM | – | 47 | – | – | –
[20], 0.3 µM | 99 | – | – | – | –
[20], 3 µM | 37 | – | – | – | –
[20], 10 µM | 9 | – | – | – | –
[20], 30 µM | 25 | – | – | – | –

Conditions | drug sensitivity score | relative viability EC50 [µM]
[8] | 0.9 | –
[9] | 0.4 | –
[10] | 1.7 | –
[11] | 0 | –
[12] | 0 | –
[15] | – | > 10
[16] | – | > 10
[17] | – | > 10
[18] | – | > 10
[19] | – | > 10

drug-induced phospholipidosis [%], [14]
Conditions | 0.3 µM | 0.833333 µM | 3.33333 µM | 6.66667 µM | 10 µM | 30 µM
24 h | 0.84 | 1.04 | 6.25 | 11.9 | 29.1 | 83.9
48 h | 1.54 | 0.53 | 4.06 | 7 | 14.2 | 37.6
72 h | 2.87 | 1.74 | 3.1 | 5.35 | 9.65 | 19.3
